Columns and labels:
[1] = biological target: T1, recombinant H. influenzae IgA1P (variant A1) (Haemophilus influenzae, UniProt P44969); assay: biochemical
[2] = biological target: T1, recombinant H. influenzae IgA1P (variant A1); type: biochemical; conditions: up to 100 μM

SMILES	IC50 [1]	Inhibition of recombinant H. influenzae IgA1P [2]
Oc1nsnc1N1CCOCC1 [Compound 1a, 4-morpholin-4-yl-1,2,5-thiadiazol-3-ol]	> 100000 nM	
NCCc1ccc(S(=O)(=O)F)cc1 [Pefablock]		did not inhibit
O=c1oc(Cl)c(Cl)c2ccccc12 [DCIC, 3,4-dichloroisocoumarin]	6 ± 1 nM	
O=S(=O)(F)Cc1ccccc1 [PMSF]		did not inhibit

Source: PMC6625846 (ACS infectious diseases, 2019)
